From publication PMC9034499, “RORγt agonist enhances anti-PD-1 therapy by promoting monocyte-derived dendritic cells through CXCL10 in cancers” (Journal of Experimental & Clinical Cancer Research : CR, 2022)

What was measured:
RORγt = molecular target: T1, RORγt (Homo sapiens, UniProt P51449); test: RORγt dual FRET assay; format: biochemical
T1 sequence (P51449 263-518 limits assumed): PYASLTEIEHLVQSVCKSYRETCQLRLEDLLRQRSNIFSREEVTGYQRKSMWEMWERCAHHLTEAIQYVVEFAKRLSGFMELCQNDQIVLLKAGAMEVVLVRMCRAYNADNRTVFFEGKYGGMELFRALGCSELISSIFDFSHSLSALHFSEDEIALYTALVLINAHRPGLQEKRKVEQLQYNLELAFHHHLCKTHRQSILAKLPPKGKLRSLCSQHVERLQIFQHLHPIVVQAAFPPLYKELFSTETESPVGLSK
T1 sequence (Q15788 676-700 partner limits assumed): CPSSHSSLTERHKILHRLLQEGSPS
Experimental: The assay was performed according to a previous study. The plates were incubated for 1 h at room temperature and then read on Envision in LANCE mode configured for the europeum-APC labels.

mouse Th17 cells = test: IL-17A secretion by Th17 cells (ELISA); format: cell-based; details: ELISA of supernatant, 0 to 160 nM
Experimental: CD4^+ CD25^−CD62L^high cells were purified from C57BL/6 splenocytes using an EasySep Mouse Naïve CD4^+ T cell isolation kit from STEMCELL Technologies (Vancouver, Canada), and they were differentiated into Th17 cells (TGF-β, 2 ng/ml; IL-6, 20 ng/ml; Anti-IFN-γ, 10 μg/ml; Anti-IL-4, 10 μg/ml, BioLegend, San Diego, CA) in the presence of plate-bound anti-CD3 (5 μg/ml, BioLegend, San Diego, CA) and anti-CD28 (2 μg/ml, BioLegend, San Diego, CA). The cells were harvested and processed for cytokine analysis at the RNA or protein level using real-time qPCR, flow cytometry, and ELISA on day five. […]
The intracellular cytokines by TILs or in vitro differentiated T helper cells were quantified after restimulation with PMA plus ionomycin in the presence of GolgiStop for 6 h. The total RNA was isolated using the improved TRizol-based (Sigma, Darmstadt, Germany) method for qPCR analysis, and the mRNA expression was analyzed using a StepOnePlus (Life Technologies, Carlsbad, USA) real-time PCR instrument using housekeeping gene β-actin and Gapdh internal standards. qPCR was performed using A Power SYBR Green PCR Master Mix (Accurate Biology, Hunan, China) and two-cycle amplification for 40 cycles followed by the melting curve. […]

LLC tumors = test: LLC syngeneic tumor model; format: in vivo, C57BL/6 mice
Experimental: All experiments were approved by the IACUC and performed with strict adherence to a series of documents and standards of procedures (SOPs) relative to animal ethics and welfare. The mice were housed in cages with controlled temperature (25 ± 2 °C) and humidity (65 ± 5%) under a 12 h light/dark cycle. After a one-week adaptation period, six to eight-week-old female mice were injected s.c. with LLC (5 × 10^5), B16F10 (2 × 10^5), or MC38 (2 × 10^6) cells into the lower right flank. Approximately seven days after the subcutaneous injection of tumor cells, the mice were randomly divided into four groups. RORγt agonist 8-074, LYC-55716 (BioChemPartner, Shanghai, China) and anti-PD-1 (BioXCell, New Hampshire, USA) treatment commenced when the average tumor size reached 50 mm^3 for LLC and B16F10 and 150 mm^3 for MC38. The 5 × 10^5 LLC cells were transplanted subcutaneously into the right flank of the C57BL/6 mice seven days after being transplanted, and the mice were randomly divided into four groups. Anti-PD-1 was administrated one day after the RORγt agonist was treated (Clone: PMP1-14; 200 μg via intraperitoneal injection on day 1, 4, 7, 10, 13 after treatment with 8-074). For the CD8^+ T cell depletion, mice were injected intraperitoneally (i.p.) with 400 μg of anti-CD8α (YTS 169.4; BioXCell, New Hampshire, USA) one day before and dosed per week after the anti-PD-1 treatment. Mice with established tumors were treated using intraperitoneal injection of 8-074 (indicated dose), LYC-55716 (50 mg/kg) or DMSO (SIGMA, New Jersey, USA) every day. […] The tumor volume based on the caliper measurements was calculated using the modified ellipsoidal equation, where the tumor volume = 1/2 (length × width ^2) and the length was the longer dimension. […] TGI was calculated using the equation: [(Ct – C0) – (Tt – T0)] / (Ct – C0) × 100, where Ct = the mean tumor volume of the control group at the time (t); C0 = the mean tumor volume of the control group at t0; Tt = mean tumor volume of the treatment group at t; and T0 = mean tumor volume of the treatment group at t0.

Th1 cells = test: Th1 specificity, IFN-γ by flow cytometry; format: cell-based, C57BL/6 wild-type mice; details: compared with vehicle alone
Text: (§1) To confirm the in vitro specificity of 8-074, splenocytes from C57BL/6 wild-type mice were activated by plate-bound anti-CD3 and anti-CD28 antibodies and polarized with anti-IL-4 and IL-12 to obtain Th1 cells. IFN-γ, a signature cytokine of Th1 cells, was not affected by LYC-55716 or 8-074 compared with vehicle alone (Fig. 2j, Fig. S2g).

B cells = test: B cell activation markers by qPCR; format: cell-based; details: compared with the vehicle
Experimental: The intracellular cytokines by TILs or in vitro differentiated T helper cells were quantified after restimulation with PMA plus ionomycin in the presence of GolgiStop for 6 h. The total RNA was isolated using the improved TRizol-based (Sigma, Darmstadt, Germany) method for qPCR analysis, and the mRNA expression was analyzed using a StepOnePlus (Life Technologies, Carlsbad, USA) real-time PCR instrument using housekeeping gene β-actin and Gapdh internal standards. qPCR was performed using A Power SYBR Green PCR Master Mix (Accurate Biology, Hunan, China) and two-cycle amplification for 40 cycles followed by the melting curve. The sequence of primers is listed in the Additional file 6: Table S1. In addition, the cytokines were quantified in cell-free culture supernatants using enzymelinked immunosorbent assay (ELISA) kit (the optical density (OD) value was measured at 450 nm, using 570 nm or 630 nm as the reference wavelengths, Multisciences, Hangzhou, China). The kit was used according to the manufacturer’s instructions.
as §1

## CCS(=O)(=O)c1ccc(CC(=O)Nc2ccc(-c3ccc(CC(C)C)c(C#N)c3)c(C(F)(F)F)c2)cc1 [8-074]
RORγt
  EC50: 19.9 nM
RORγt; maximal activation
  RORγt dual FRET %max: 199%
Mouse Th17 cells
  EC50: 22.8 nM
LLC tumors; LLC combination study Fig. 3e, anti-PD-1 10 mg/kg every three days i.p., 8-074 i.p. every day
  TGI: 59.3%
LLC tumors; LLC model, dose escalation
  body weight of mice: slight body weight loss
LLC tumors; LLC, 50 mg/kg i.p. QD over two weeks, Fig. 3a
  Tumor growth inhibition (TGI): 55.6%
Th1 cells
  IFN-γ, signature cytokine of Th1 cells: not affected
B cells
  gene expression of activated B cell markers Cd19 and Cd86: no significant change
